From patent US11613558B2, “Peptides and pharmaceutical compositions for treating eye diseases” (Yuyu Pharma, Inc., priority 2018, dated 2023)
Square brackets hold non-standard residues; d marks the D form. Ends that are not written are not given here. Peptide text beside a SMILES is read from it. ξ: configuration not given here. Pro(trans-4-F) = O=C(O)[C@@H]1C[C@@H](F)CN1; Nva(4-oxo) = CC(=O)C[C@H](N)C(=O)O; Hyp = O=C(O)[C@@H]1C[C@@H](O)CN1; Ile(3ξ) = CCC(C)[C@H](N)C(=O)O; Thr(3ξ) = CC(O)[C@H](N)C(=O)O; hSer = N[C@@H](CCO)C(=O)O; Sar = CNCC(=O)O

Experiments:
[1] = tested on: cornea of rats with dry eye syndrome (ELGE); experiment: Corneal permeability of fluorescent dye (corneal damage) in ELGE rats with dry eye syndrome; format: in vivo, rat; settings: 5 μl/eye twice daily, day 14
Description: (§1) In order to evaluate the eye protection effect on dry eye syndrome by YDE-001 to YDE-028 prepared in Example 1, a total of 320 Sprague-Dawley-type male rats (OrientBio, Seungnam, Korea) were adapted for 7 days. Thereafter, dry eye syndrome was induced in 264 test rats through extraorbital lacrimal gland excision (hereinafter, ELGE). 8 test rats without the eye abnormality were subjected to a sham operation as a control group.
(§2) The rat was systemically anesthetized by inhaling a mixed gas of 2% to 3% of isoflurane (Hana Pharm. Co., Hwasung, Korea), 70% of N2O, and 28.6% of O2 using a rodent anesthesia machine (Surgivet, Waukesha, Wis., USA) and a ventilator (Model 687, Harvard Apparatus, Cambridge, UK). Thereafter, the extraorbital lacrimal gland located in the subdermal area above the masseter muscle and […] was excised through a transverse incision in a size of 10 mm on the anterior part of the left ear tragus. The skin was sutured by a general method. […] After 6 days from the ELGE operation, it was checked through the Schirmer test by measuring the amount of tear secretion whether dry eye syndrome had been induced. Meanwhile, each rat of the control group with the sham operation was checked for the presence and location of the extraorbital lacrimal gland through a skin incision, and the skin was then sutured without the excision thereof (FIG. 4).
(§3) In addition, in order to evaluate the eye protection effect on dry eye syndrome by YDE-029 to YDE-043 prepared in Example 1, a total of 200 Sprague-Dawley-type male rats (OrientBio, Seungnam, Korea) were adapted for 7 days. Dry eye syndrome was induced in 165 test rats through the ELGE. 8 test rats without the eye abnormality were subjected to the sham operation as a control group. The ELGE was carried out as described above.
(§4) For YDE-001 to YDE-028, YY-102 and the 28 YDE-series were each dissolved in physiological saline at a concentration of 3 mg/ml and administered at a dose of 5 μl/eye at 9:30 am and 3:30 pm daily for 14 days after 7 days from the ELGE operation for a total of 28 times. The DS solution was dissolved in physiological saline at a concentration of 30 mg/ml and administered at a dose of […] twice a day for 14 days after 7 days from the ELGE operation for a total of 28 times. For the sham control and the ELGE control groups, the same stimulation as the administration was applied. In order to prevent excessive eye dryness, the same volume of physiological saline was applied in the same manner in place of the test substances.
as §4, with “Further, for YDE-029 to YDE-043,” for “For YDE-001 to YDE-028,”, “YDE-029 to YDE-043, YY-102 and” for “YDE-001 to YDE-028, YY-102 and”, “and the 15 YDE-series were” for “and the 28 YDE-series were”, “the test substances (FIG. 7).” for “the test substances.”
After YDE-001 to YDE-028 were each administered to the eyes […], the changes in the corneal permeability were checked.
In order to measure the corneal permeability, Zolethyl 50™ (Virbac Lab., Carros, France), an animal anesthetic, was intraperitoneally injected at a dose of 25 mg/kg. Thereafter, saline containing a 1% (v/v) fluorescent solution (fluorescein sodium salt, Tokyo Kasei Kogyo Co., Tokyo, Japan) was applied to the eyes at a dose of 5 μl/eye. The eyes thus treated were closed and fixed with a tape. After 1 hour, the remaining fluorescent solution was removed using a cotton swab (FIG. 12). […]

[2] = Stability in aqueous solution under long-term storage conditions (related substances); format: physicochemical; settings: 25° C., 75% RH
Description: In order to confirm the stability of each test substance in an aqueous solution, […] of each sample was dissolved in 1 ml of water to a concentration of 1 mg/ml, which was then charged to a glass vial, plugged with a rubber cap, sealed with an aluminum cap, and stored under long-term storage conditions (25° C., 75% RH). The stability of the test substance was evaluated by measuring the amount of related substances at the time of one week, two weeks, four weeks, eight weeks, and twelve weeks under the long-term storage conditions.

[3] = tested on: rats with dry eye syndrome (extraorbital lacrimal gland excision, ELGE); experiment: Amount of tear secretion (Schirmer test, cobalt chloride paper) in ELGE rats with dry eye syndrome; format: in vivo, rat; settings: for Tear Volumes, Day 7 / Tear Volumes, Day 14: ELGE rats, 3 mg/ml, 5 μl/eye twice daily; for Tear Volumes, Day 7: day 7 of administration; for Tear Volumes, Day 14: day 14 of administration; for Change in amount of tear secretion as compared with the ELGE control group: 3% solution as printed, after administration for 14 days
Description: as §1, §2, §3, §4
as §4, with “Further, for YDE-029 to YDE-043,” for “For YDE-001 to YDE-028,”, “YDE-029 to YDE-043, YY-102 and” for “YDE-001 to YDE-028, YY-102 and”, “and the 15 YDE-series were” for “and the 28 YDE-series were”, “the test substances (FIG. 7).” for “the test substances.”
After 6 days from the ELGE surgery, the changes in the amount of tear secretion were measured at day 7 and day 14 after the administration of YDE-001 to YDE-043. The amount of tear secretion was measured by the […] travel distance of tears absorbed by cobalt chloride paper in a size of 1×15 mm (Toyo Roshi Kaisha, Japan).
The cobalt chloride paper was placed in the lateral canthus of a rat for 60 seconds to absorb tears (FIG. 9). The length of the area absorbed from the corner of the cobalt chloride paper was measured with an electronic digital caliper (Mytutoyo, Tokyo, Japan) (FIG. 8).

[4] = Table 6, study of YDE-001 to YDE-028, 3 mg/ml
[5] = Table 4, study of YDE-001 to YDE-028
[6] = Table 7, study of YDE-029 to YDE-043, 3 mg/ml
[7] = Table 5, study of YDE-029 to YDE-043

Amount of related substances (after 12 weeks) [2] | Compound | Permeability of fluorescent dye [1, 4] | Tear Volumes, Day 7 [3, 5] | Tear Volumes, Day 14 [3, 5] | Permeability of fluorescent dye [1, 6] | Tear Volumes, Day 7 [3, 7] | Tear Volumes, Day 14 [3, 7] | Change in amount of tear secretion as compared with the ELGE control group ([3]; study of YDE-029 to YDE-043) | Change in amount of tear secretion as compared with the ELGE control group ([3]; study of YDE-001 to YDE-028)
6.16% | CC(C)C[C@H](NC(=O)CNC(=O)[C@H](CC(C)C)NC(=O)[C@H](CCC(N)=O)NC(=O)CNC(=O)[C@@H]1C[C@@H](O)CN1)C(=O)N[C@@H](C)C(=O)NCC(=O)N1CCC[C@H]1C(=O)N[C@@H](CCC(N)=O)C(=O)O [YDE-032] (H-[Hyp]GQLGLAGPQ-OH) | – | – | – | 58.90 ± 19.81% | 5.58 ± 0.80 mm^3 | 5.03 ± 0.93 mm^3 | did not show any significant changes | –
2.19% | CC(C)C[C@H](NC(=O)CNC(=O)[C@H](CC(C)C)NC(=O)[C@H](CCC(N)=O)NC(=O)CNC(=O)[C@@H]1C[C@@H](F)CN1)C(=O)N[C@@H](C)C(=O)NCC(=O)N1CCC[C@H]1C(=O)N[C@@H](CCCCN)C(=O)O [YDE-039] (H-[Pro(trans-4-F)]GQLGLAGPK-OH) | – | – | – | 29.94 ± 11.40% | 6.04 ± 1.01 mm^3 | 6.44 ± 1.96 mm^3 | – | –
2.88% | PGQLGLAGPK [YDE-037] | – | – | – | 36.30 ± 9.75% | 4.98 ± 0.66 mm^3 | 5.80 ± 0.90 mm^3 | – | –
10.15% | CC(C)C[C@H](NC(=O)CNC(=O)[C@H](CCO)NC(=O)[C@H](CCC(N)=O)NC(=O)CNC(=O)[C@@H]1C[C@@H](O)CN1)C(=O)N[C@@H](C)C(=O)NCC(=O)N1CCC[C@H]1C(=O)N[C@@H](CCCCN)C(=O)O [YDE-026] (H-[Hyp]GQ[hSer]GLAGPK-OH) | 22.63 ± 11.23% | 4.32 ± 1.47 mm^3 | 6.01 ± 1.83 mm^3 | – | – | – | – | –
3.43% | CC(C)C[C@H](NC(=O)[C@H](CCC(N)=O)NC(=O)CNC(=O)[C@@H]1C[C@@H](O)CN1)C(=O)NCC(=O)O [YDE-043] (H-[Hyp]GQLG-OH) | – | – | – | 19.04 ± 7.36% | 5.90 ± 1.06 mm^3 | 8.16 ± 1.42 mm^3 | – | –

The remaining lines, values behind:

Compound | Amount of related substances (after 12 weeks) [2] | Permeability of fluorescent dye [1, 4] | Tear Volumes, Day 7 [3, 5] | Tear Volumes, Day 14 [3, 5] | Permeability of fluorescent dye [1, 6] | Tear Volumes, Day 7 [3, 7] | Tear Volumes, Day 14 [3, 7] | Change in amount of tear secretion as compared with the ELGE control group ([3]; study of YDE-029 to YDE-043) | Change in amount of tear secretion as compared with the ELGE control group ([3]; study of YDE-001 to YDE-028)
CC(C)C[C@H](NC(=O)CNC(=O)[C@H](Cc1ccc(O)cc1)NC(=O)[C@H](CCC(N)=O)NC(=O)CNC(=O)[C@@H]1C[C@@H](O)CN1)C(=O)N[C@@H](C)C(=O)NCC(=O)N1CCC[C@H]1C(=O)N[C@@H](CCCCN)C(=O)O [YDE-013] (H-[Hyp]GQYGLAGPK-OH) | 5.92% | 32.24 ± 7.84% | 5.27 ± 1.50 mm^3 | 5.49 ± 1.92 mm^3 | – | – | – | – | –
CC(C)C[C@H](NC(=O)CNC(=O)[C@@H](NC(=O)[C@H](CCC(N)=O)NC(=O)CNC(=O)[C@@H]1C[C@@H](O)CN1)C(C)O)C(=O)N[C@@H](C)C(=O)NCC(=O)N1CCC[C@H]1C(=O)N[C@@H](CCCCN)C(=O)O (some centres unmarked) [YDE-007] (H-[Hyp]GQ[Thr(3ξ)]GLAGPK-OH) | 3.76% | 32.79 ± 10.77% | 3.91 ± 1.28 mm^3 | 5.45 ± 1.26 mm^3 | – | – | – | – | –
CC(C)C[C@H](NC(=O)[C@H](Cc1ccc(O)cc1)NC(=O)[C@H](CC(=O)O)NC(=O)[C@H](CCC(N)=O)NC(=O)CNC(=O)[C@@H]1C[C@@H](O)CN1)C(=O)N[C@@H](C)C(=O)NCC(=O)N1CCC[C@H]1C(=O)N[C@@H](CCCCN)C(=O)O [YDE-020] (H-[Hyp]GQDYLAGPK-OH) | 21.54% | 47.84 ± 13.47% | 3.41 ± 1.47 mm^3 | 4.20 ± 1.35 mm^3 | – | – | – | – | did not show any significant changes
CC(=O)C[C@H](NC(=O)[C@H](CCC(N)=O)NC(=O)CNC(=O)[C@@H]1C[C@@H](O)CN1)C(=O)N(C)CC(=O)N[C@@H](CC(C)C)C(=O)N[C@@H](C)C(=O)NCC(=O)N1CCC[C@H]1C(=O)N[C@@H](CCCCN)C(=O)O [YDE-025] (H-[Hyp]GQ[Nva(4-oxo)][Sar]LAGPK-OH) | 5.17% | 47.10 ± 11.45% | 3.21 ± 0.72 mm^3 | 4.72 ± 2.19 mm^3 | – | – | – | – | did not show any significant changes
CC(C)C[C@H](NC(=O)CNC(=O)[C@H](C)NC(=O)[C@H](CCC(N)=O)NC(=O)CNC(=O)[C@@H]1C[C@@H](O)CN1)C(=O)N[C@@H](C)C(=O)NCC(=O)N1CCC[C@H]1C(=O)N[C@@H](CCCCN)C(=O)O [YDE-008] (H-[Hyp]GQAGLAGPK-OH) | 4.42% | 20.32 ± 11.87% | 4.57 ± 1.25 mm^3 | 6.10 ± 2.36 mm^3 | – | – | – | – | –
CC(C)C[C@H](NC(=O)[C@H](CC(C)C)NC(=O)[C@H](CC(=O)O)NC(=O)[C@H](CCC(N)=O)NC(=O)CNC(=O)[C@@H]1C[C@@H](O)CN1)C(=O)N[C@@H](C)C(=O)NCC(=O)N1CCC[C@H]1C(=O)N[C@@H](CCCCN)C(=O)O [YDE-017] (H-[Hyp]GQDLLAGPK-OH) | 11.88% | 39.76 ± 7.42% | 4.00 ± 1.22 mm^3 | 4.89 ± 1.50 mm^3 | – | – | – | – | did not show any significant changes
CCC(C)[C@H](NC(=O)[C@H](CCC(N)=O)NC(=O)CNC(=O)[C@@H]1C[C@@H](O)CN1)C(=O)NCC(=O)N[C@@H](CC(C)C)C(=O)N[C@@H](C)C(=O)NCC(=O)N1CCC[C@H]1C(=O)N[C@@H](CCCCN)C(=O)O (some centres unmarked) [YDE-010] (H-[Hyp]GQ[Ile(3ξ)]GLAGPK-OH) | 4.39% | 49.29 ± 12.06% | 3.42 ± 1.31 mm^3 | 4.35 ± 1.36 mm^3 | – | – | – | – | did not show any significant changes
